How the values were obtained:
[1] = molecular target: T1, oxytocin receptors (rat uterus membranes) (Rattus norvegicus, UniProt P70536); experiment: Oxytocin Receptor Binding; set-up: species or system female Sprague-Dawley rats
T1 construct: The resulting pellet containing the oxytocin receptors is resuspended; from tissue; host or cells: uterus membranes of DES-treated female Sprague-Dawley rats
T1 sequence (P70536 1-388): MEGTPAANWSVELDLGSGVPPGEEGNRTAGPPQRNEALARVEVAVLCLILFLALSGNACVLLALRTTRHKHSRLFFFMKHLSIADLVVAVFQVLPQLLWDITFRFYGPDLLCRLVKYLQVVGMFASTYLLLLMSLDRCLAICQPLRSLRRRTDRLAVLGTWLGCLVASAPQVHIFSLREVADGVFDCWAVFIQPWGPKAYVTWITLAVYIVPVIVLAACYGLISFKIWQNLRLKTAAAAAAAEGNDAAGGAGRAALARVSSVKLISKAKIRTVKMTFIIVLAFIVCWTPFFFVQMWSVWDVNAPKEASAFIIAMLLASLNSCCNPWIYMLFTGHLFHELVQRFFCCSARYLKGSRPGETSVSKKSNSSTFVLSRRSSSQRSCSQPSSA
Description: Female Sprague-Dawley rats weighing approximately 200-250 g are injected intramuscularly (i.m.) with 0.3 mg/kg of body weight of diethylstilbestrol (DES). The rats are sacrificed 18 hours later under pentobarbital anesthesia. The uteri are dissected out, cleaned of fat and connective tissues and rinsed in 50 ml of normal saline. The tissue pooled from six rats is homogenized in 50 ml of […] Tris.HCl, containing 0.5 mM dithiothreitol and 1.0 mM EDTA, adjusted to pH 7.4, using a polytron at setting 6 with three passes of 10 sec each. The homogenate is passed through two (2) layers of cheesecloth and the filtrate centrifuged at 1000×g for 10 min. The clear supernatant is removed and recentrifuged at 165,000×g for 30 min. The resulting pellet containing the oxytocin receptors is resuspended in 50.0 mM Tris.HCl containing 5.0 mM MgCl2 at pH 7.4, to give a protein concentration of 2.5 mg/ml of tissue suspension. This preparation is used in subsequent binding assays with [^3 H]Oxytocin.
Binding of 3,5-[^3 H]Oxytocin ([^3 H]OT) to its receptors is done in microtiter plates using [^3 H]OT, at various concentrations, in an assay buffer of 50.0 mM Tris.HCl, pH 7.4 and containing 5.0 mM MgCl2, and a mixture of protease inhibitors: BSA, 0.1 mg; aprotinin, 1.0 mg; 1,10-phenanthroline, 2.0 mg; […], 10.0 mg; and PMSF, 0.3 mg per 100 ml of buffer solution. Non-specific binding is determined in the presence of 1.0 uM unlabeled OT. The binding reaction is terminated after 60 min., at 22° C., by rapid filtration through glass fiber filters using a Brandel® cell harvester (Biomedical Research and Development Laboratories, Inc., Gaithersburg, Md.). Competition experiments are conducted at equilibrium using 1.0 nM [^3 H]OT and varying the concentration of the displacing agents. The concentrations of agent displacing 50% of [^3 H]OT at its sites (IC50) are calculated by a computer assisted LUNDON-2 program (LUNDON SOFTWARE INC., Ohio, USA).

[2] = molecular target: T2, vasopressin V1 receptor subtype in human platelet membranes (Homo sapiens, UniProt P37288); experiment: Binding to Vasopressin V1 Receptor Subtype in Human Platelet Membranes; details: for IC50: human platelet V1 (*)
T2 construct: tissue Hudson Valley Blood Services; host or cells: human blood platelets (frozen platelet rich plasma)
Description: (a) Platelet Membrane Preparation:
Frozen platelet rich plasma (PRP), received from the Hudson Valley Blood Services, are thawed to room temperature. (Platelet Source: Hudson Valley Blood Services, Westchester Medical Center, Valhalla, N.Y.). The tubes containing the PRP are centrifuged at 16,000×g for 10 min. at 4° C. and the supernatant fluid discarded. The platelets resuspended in an equal volume of 50.0 mM Tris.HCl, pH 7.5 containing 120 mM NaCl and 20.0 mM EDTA. The suspension is recentrifuged at 16,000×g for 10 min. This washing step is repeated one more time. The wash discarded and the lysed pellets homogenized in low ionic strength buffer of Tris.HCl, 5.0 mM, pH 7.5 containing 5.0 mM EDTA. The homogenate is centrifuged at 39,000×g for 10 min. The resulting pellet is resuspended in Tris.HCl buffer, 70.0 mM, pH 7.5 and recentrifuged at 39,000×g for 10 min. The final pellet is resuspended in 50.0 mM Tris.HCl buffer pH 7.4 containing 120 mM NaCl and 5.0 mM KCl to give 1.0-2.0 mg protein per ml of suspension.
(b) Binding to Vasopressin V1 Receptor Subtype in Human Platelet Membranes:
In wells of a 96 well format microtiter plate, add 100 μl of 50.0 mM Tris.HCl buffer containing 0.2% BSA and a mixture of protease inhibitors (aprotinin, leupeptin etc.). Then add 20 μl of [^3 H]Ligand (Manning or Arg^8 Vasopressin), to give final concentrations ranging from 0.01 to 10.0 nM. Initiate the binding by adding 80.0 μl of platelet suspension (approx. 100 μg protein). Mix all reagents by pipetting the mixture up and down a few times. Non specific binding is measured in the presence of 1.0 μM of unlabeled ligand (Manning or Arg^8 Vasopressin). Let the mixture stand undisturbed at room temperature for ninety (90) min. Upon this time, rapidly filter off the incubate under vacuum suction over GF/B filters, using a Brandel Harvester. The radioactivity caught on the filter disks is determined by the addition of liquid scintillant and counting in a liquid scintillator.

T2 sequence (P37288 whole entry): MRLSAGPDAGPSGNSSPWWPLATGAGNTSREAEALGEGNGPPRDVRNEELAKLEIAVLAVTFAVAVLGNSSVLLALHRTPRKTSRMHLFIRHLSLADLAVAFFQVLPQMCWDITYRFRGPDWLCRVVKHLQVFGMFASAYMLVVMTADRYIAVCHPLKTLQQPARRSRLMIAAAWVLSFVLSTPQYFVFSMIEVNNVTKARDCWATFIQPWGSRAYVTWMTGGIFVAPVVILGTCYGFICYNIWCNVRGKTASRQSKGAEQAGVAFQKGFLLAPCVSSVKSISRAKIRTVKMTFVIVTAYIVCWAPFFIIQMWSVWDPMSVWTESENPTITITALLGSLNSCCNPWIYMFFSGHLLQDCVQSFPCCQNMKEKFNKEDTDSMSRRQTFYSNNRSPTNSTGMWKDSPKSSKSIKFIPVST

Compound | inhibition at 10 µM [1] [%] | IC50 ([1]; second part of Table V) [µM] | IC50 [2] [µM] | inhibition at 10 µM ([2]; 1.5 h, 10 μM, human platelet (*), read-out: *V1, % at concentration in brackets) [%] | IC50 ([1]; first part of Table V) [µM]
Cc1nc2c(s1)CCN(C(=O)c1ccc(NC(=O)c3cc(F)ccc3C)cc1)c1ccccc1-2 [Example 534] | 86 | 0.94 | 0.09 | – | –
CC(C)COc1ccc([N+](=O)[O-])cc1C(=O)Nc1ccc(C(=O)N2Cc3ccccc3Cc3ccccc32)cc1 [Example 453] | – | 3.3 | – | 14 | –
COc1cc(C(=O)N2Cc3ccccc3Cc3ccccc32)ccc1NC(=O)c1ccc(Cl)cc1Cl [Example 263, N-[4-[(6,11-Dihydro-5H-dibenz[b,e]azepin-5-yl)-carbonyl]-2-methoxyphenyl]-2,4-dichlorobenzamide] | 94 | – | 0.43 | – | 0.26
O=C(Nc1ccc(C(=O)N2Cc3ccccc3Cc3ccccc32)cc1)c1cc(Cl)cc(Cl)c1 [Example 251, N-(4-[(6,11-Dihydro-5H-dibenz[b,e]azepin-5-yl)-carbonyl]phenyl]-3,5-dichlorobenzamide] | 77 | – | – | – | –
O=C(Nc1ccc(C(=O)N2Cc3ccccc3Cc3ccccc32)cc1)C1CC=CCC1 (centres unmarked) [Example 255, N-[4-[(6,11-Dihydro-5H-dibenz[b,e]azepin-5-yl)-carbonyl]phenyl]-3-cyclohexene-1-carboxamide] | 99 | – | – | – | 0.46
COc1cc(C(=O)N2Cc3ccccc3Cc3ccccc32)ccc1NC(=O)c1cc(F)ccc1C [Example 261, N-[4-[(6,11-Dihydro-5H-dibenz[b,e]azepin-5-yl)-carbonyl]-2-methoxyphenyl]-2-methyl-5-fluorobenzamide] | 97 | – | 0.021 | – | 0.21
Cc1ccccc1C(=O)Nc1ccc(C(=O)N2CCc3cn(C)nc3-c3ccccc32)cc1 [Example 379, N-[4-[(4,5-Dihydro-2-methylpyrazolo[4,3-d][1]-benzazepin-6(2H)-yl)carbonyl]phenyl]-2-methylbenzamide] | 96 | – | – | – | 0.81
Cc1ccccc1C(=O)N(CN(C)C)c1ccc(C(=O)N2Cc3ccccc3Cc3ccccc32)cc1 [Example 267, N-[4-[(6,11-Dihydro-5H-dibenz[b,e]azepin-5-yl)-carbonyl]phenyl]-N-[(dimethylamino)methyl]-2-methylbenzamide] | 89 | – | – | – | 1.1
Cc1ccccc1C(=O)Nc1ccc(C(=O)N2Cc3ccccc3Cc3ccccc32)c(Cl)c1 [Example 260, N-[4-[(6,11-Dihydro-5H-dibenz[b,e]azepin-5-yl)-carbonyl]-3-chlorophenyl]-2-methylbenzamide] | 44 | – | – | – | –
Cc1ncc2c(n1)-c1ccccc1N(C(=O)c1ccc(NC(=O)c3ccccc3C)cc1)CC2 [Example 416, N-[4-[(6,7-Dihydro-2-methyl-5H-pyrimido[5,4-d][1]-benzazepin-7-yl)carbonyl]phenyl]-2-methylbenzamide] | 19 | – | – | – | –
Cc1c(F)cccc1C(=O)Nc1ccc(C(=O)N2Cc3ccccc3Cc3ccccc32)cc1Cl [Example 262, N-[4-[(6,11-Dihydro-5H-dibenz[b,e]azepin-5-yl)-carbonyl]-2-chlorophenyl]-2-methyl-3-fluorobenzamide] | 55 | – | 0.62 | – | 6.2
Cc1ccccc1C(=O)Nc1ccc(C(=O)N2Cc3ccccc3-c3ccccc32)cc1 [Example 5, 2-Methyl-N-[4-[(5(6H)-phenanthridinyl)carbonyl]phenyl]benzamide] | 90 | – | – | – | 2
Cc1nc2c(s1)CCN(C(=O)c1ccc(NC(=O)c3ccc(Cl)cc3Cl)cc1)c1ccccc1-2 [Example 455, N-[4-(4,5-Dihydro-2-methyl-6H-thiazolo[5,4-d][1]-benzazepin-6-yl)carbonyl1phenyl]-2,4-dichlorobenzamide] | 88 | 1.1 | 0.25 | – | –
Cc1ccc(F)cc1C(=O)Nc1ccc(C(=O)N2CCc3c[nH]nc3-c3ccccc32)c(Cl)c1 [Example 581] | 95 | 0.475 | 0.15 | – | –
COc1cc(C(=O)N2Cc3ccccc3Cc3ccccc32)ccc1NC(=O)c1ccccc1C [Example 257, N-[4-[(6,11-Dihydro-5H-dibenz[b,e]azepin-5-yl)-carbonyl]-2-methoxyphenyl]-2-methylbenzamide] | 97 | – | 0.016 | – | 0.189
O=C(Nc1ccc(C(=O)N2Cc3ccccc3Sc3ccccc32)cc1)c1ccccc1Cl [Example 448, N-[4-[(Dibenz[b,f][1,4]thiazepin-10(11H)yl)-carbonyl]phenyl]-2-chlorobenzamide] | 39 | – | – | – | –
Cc1cc(C(=O)N2Cc3ccccc3Cc3ccccc32)cc(C)c1NC(=O)c1ccc(Cl)cc1Cl [Example 259, N-[4-[(6,11-Dihydro-5H-dibenz[b,e]azepin-5-yl)-carbonyl]-2,6-dimethylphenyl]-2 4-dichlorobenzamide] | 7 | – | – | – | –
O=C(Nc1ccc(C(=O)N2Cc3ccccc3Cc3ccccc32)cc1)c1cccc(Cl)c1Cl [Example 253, N-[4-[(6,11-Dihydro-5H-dibenz[b,e]azepin-5-yl)-carbonyl]phenyl]-2,3-dichlorobenzamide] | 77 | – | – | – | 3.1
Cc1ccc(F)cc1C(=O)Nc1ccc(C(=O)N2CCc3c[nH]nc3-c3ccccc32)cc1 [Example 584, N-[4-[(4.5-Dihydropyrazolo[4,3-d][1]benzazepin-6(2H)-yl)carbonyl]phenyl]-5-fluoro-2-methylbenzamide] | 100 | 0.17 | 0.028 | – | –
Cc1ccccc1C(=O)Nc1c(C)cc(C(=O)N2Cc3ccccc3Cc3ccccc32)cc1C [Example 258, N-[4-[(6,11-Dihydro-5H-dibenz[b,e]azepin-5-yl)-carbonyl]-2,6-dimethylphenyl]-2-methylbenzamide] | 18 | – | – | – | –
Cc1ccccc1C(=O)Nc1ccc(C(=O)N2Cc3ccccc3Cc3ccccc32)cc1 [Example 2, N-[4-[(6,11-Dihydro-5H-dibenz[b,e]azepin-5-yl)carbonyl]phenyl]-2-methylbenzamide] | 73 | – | – | – | 2.9

— US5834461A, “Tricyclic benzazepine vasopressin antagonists” (American Cyanamid Company, priority 1997, dated 1998)
